Among the data in patent US4405608A, “Novel peptide” (Novo Industri A/S, priority 1981, dated 1983) are adverse effects values, retold here.

No end group written: not given here.

This data set is described as follows: Toxicology: repeated subcutaneous administration to cats. In kind it is in vivo. The following applies: repeated s.c. administration of increasing doses up to 16 μg/kg body weight.

As to RSLQNTEEKSRSFPAPQTDPLDDPDQMTED [GRPP], the adverse effects result is given as “did not cause any adverse effects”.
